The results in this text go back to article PMC2288786 (BMC Structural Biology, 2008).

Series [1] has as its target T1, CaM (Rattus norvegicus, UniProt P0DP29).
T1 construct: made in house; host or cells: E. coli Rosetta (DE3)
Briefly: Far-UV circular dichroism, k2d secondary structure deconvolution. The format is physicochemical, vertebrate. The settings on record: k2d deconvolution of CD spectrum, +20°C, 10 mM HEPES pH 7.5, 150 mM NaCl, 4 mM CaCl2; CaM 0.050 mg/ml, peptide 0.030 mg/ml. The protocol: The spectra were corrected by subtracting the spectrum of a buffer sample (10 mM HEPES pH 7.5, 150 mM NaCl, 4 mM CaCl2). Noise reduction was applied to smooth the data with the Jasco software. The spectra are presented as mean residue ellipticity (θ), calculated by using the molar concentration of peptide or protein and multiplying by the appropriate number of peptide bonds. […] Secondary structure contents of the samples were estimated with the program […] [26].
For orientation: Circular dichroism is the unequal absorption of left and right circularly polarised light.

For series [2], the target named is T1, CaM. The series is described as follows: Size exclusion chromatography of CaM with and without MBP peptide. The format is binding, vertebrate. The settings on record: Superdex 75, free CaM. Background: In gel filtration, larger molecules generally elute earlier.
Procedure: Gel filtration chromatography with the ÄKTApurifier system (Pharmacia Biotech) was used to investigate the difference in the behaviour of CaM in the presence and absence of the MBP peptide. A Superdex 75 HR 10/30 column (Amersham Pharmacia Biotech) was equilibrated with 50 mM HEPES buffer pH 7.5, 150 mM NaCl, 4 mM CaCl2. The experiments were run at a flow rate of 0.5 ml/min, the injection volumes were 250 μl, the concentration of CaM was 0.8 mM, and the concentration of the peptide was 4 mM.
The test system of series [3] is CaM. The series is described as follows: Affinity chromatography of human brain MBP on CaM-sepharose. The format is binding. The protocol: Calcium-dependent affinity chromatography of human MBP on CaM-sepharose (GE Healthcare) was carried out as follows: 200 μg of lyophilized human brain MBP were dissolved in 50 mM HEPES pH 7.5, 150 mM NaCl, 2 mM CaCl2. The same buffer that was used to equilibrate 100 μl of the CaM-sepharose matrix. The sample was mixed with the matrix and washed with 5 ml of the above buffer. Elution was done with 1.4 ml of 50 mM HEPES pH 7.5, 150 mM NaCl, 2 mM EGTA. The fractions were applied on a 18% SDS-PAGE gel. To detect which isoforms were bound to CaM-sepharose, fractions 2 (wash) and 7 (EGTA elution) were purified with Vivapure® C18 Micro spin columns prior to analysis by mass spectrometry. MALDI-ToF mass spectrometry was performed with a Voyager-DE STR Biospectrometry Workstation (Applied Biosystems). 1 μl of the protein sample was spotted on sinapinic acid matrix.

Series [4] concerns the target T1, CaM. The series is described as follows: Isothermal titration calorimetry of MBP peptide binding to CaM. Details: species or system vertebrate. The protocol:
The peptide was dissolved in 50 mM HEPES pH 7.5, 20 mM CaCl2 and stored at -20°C. […] Native MBP protein isolated using the chloroform extraction method from post-mortem human brain was obtained from FermLab (Turku, Finland).
The samples for the experiment were extensively dialysed against 50 mM HEPES pH 7.5, 20 mM CaCl2 and degassed in an ultrasonic water bath. […] The first injection of 2 μl was followed by 19 15-μl injections of the peptide. The experiment was carried out at +25, +30, +35, and +40°C. The dilution heat was measured by titrating the buffer with the 1 mM peptide solution. […] The raw data were fitted by non-linear least squares minimisation with models for both a single site and four binding sites (see Results), using the Origin version 5.0 software (MicroCal).
Background: ITC needs no label: the signal is the heat of the interaction.

Series [5] deals with T1, CaM. Briefly: Surface plasmon resonance, peptide over immobilised CaM. The format is binding, vertebrate. The protocol:
SPR assays were performed with a Biacore 3000 instrument (Biacore AB, Uppsala, Sweden). […] Binding of the peptide was tested in 10 mM HEPES pH 7.5, 150 mM NaCl, 4 mM CaCl2 containing 0.005% P-20 surfactant (Biacore AB), at a flow rate of 30 μl/min. Various concentrations of the peptide (2.5–200 μM) were injected in duplicate over both of the flow cells for 3 min, and a 6-min dissociation phase followed each injection. The surfaces were regenerated with a 20-s injection of 10 mM EDTA and another 10-s injection of 20 mM NaOH at a flow rate of 30 μl/min prior to the next injection cycle. The BIAevaluation software version 3.1 (Biacore AB) was used to analyse the data. […] Furthermore, a sensorgram of the injection of buffer alone was subtracted from the data. The data were analysed using the various interaction models available in the software, including the mass transfer model. The only model giving a reasonable fit to the data was the conformational change model (see Results).
A 20-μM solution of the peptide in the running buffer was injected over the flow cells of the CaM-coated sensor chip at a flow rate of 30 μl/min, using different injection times (1, 3, and 20 min). Each injection was followed by a 15-min dissociation time. The surface was regenerated and the data were treated as above.

By Kd is commonly meant the constant that tells how readily two partners part at equilibrium. A low value points to a tighter complex.

Where no end group is shown, it is not given here.

In the series with CaM [1], calmodulin [CaM] showed a Random coil content of 0.12, a α-Helix content of 0.88 and a β-Sheet content of 0. In addition, the “apparent molecular weight in gel filtration” value at CaM [2] is “approximately 30 kDa”.
On to “myelin basic protein (HKGFKGVDAQGTLSKIFKL) [MBP, Native MBP protein isolated using the chloroform extraction method from post-mortem human brain; 17.2- and 18.5-kDa isoforms]”, for which, in the series with CaM [3] (50 mM HEPES pH 7.5, 150 mM NaCl, 2 mM CaCl2), the “binding to CaM-sepharose in presence of calcium” value is “retained in the affinity matrix”. Also, the “release from CaM-sepharose by EGTA” value in the series on CaM [3] (50 mM HEPES pH 7.5, 150 mM NaCl, 2 mM EGTA) is “released”. Further, the “MBP isoforms in EGTA eluate” value in the series on CaM [3] (MALDI-ToF mass spectrometry) is 17.2 and 18.5 kDa, were both present in the EGTA eluate.
As for HKGFKGVDAQGTLSKIFKL [MBP peptide], the Kd at CaM [4] was found to be 25.9 µM; at CaM [4] (25°C (298.15 K), fit to the specific binding site only (one site, peaks 2–7), 1.0 mM peptide into 0.10 mM CaM, 50 mM HEPES pH 7.5, 20 mM CaCl2), 3.4 µM; on CaM [4] (30°C (303.15 K), fit to the specific binding site only (one site, peaks 2–7), 1.0 mM peptide into 0.10 mM CaM, 50 mM HEPES pH 7.5, 20 mM CaCl2), 2.3 µM; at CaM [4] (35°C (308.15 K), fit to the specific binding site only (one site, peaks 2–7), 1.0 mM peptide into 0.10 mM CaM, 50 mM HEPES pH 7.5, 20 mM CaCl2) it was 1.9 µM; at CaM [5] it was 58 µM. For the same substance, the Kd in words result at CaM [4] (ITC, different temperatures) is “low μM range”.
